Measurements as given in patent US20230416205A1, “COMPOUNDS, COMPOSITIONS, AND METHODS” (Denali Therapeutics Inc, priority 2020, published 2023).
Like-named read-outs stand apart in the source and are kept apart here.

Test system: NLRP3
Assay: IL-1β secretion assay in PMA-differentiated, LPS/nigericin-stimulated THP-1 cells (384-well, ELISA read-out)
Assay type: cell-based, human
Conditions: Homo sapiens
Method in brief: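 Secreted IL-1β quantified by capture ELISA from supernatants of PMA-differentiated THP-1 cells (30K per well). Sequence: LPS 25 ng/mL priming 2 h, compound 1 h, nigericin 2 h; dose-responses normalized between high (LPS plus 5 μM nigericin) and low (LPS alone) controls.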

[1] = THP-1, IL-1β secretion, PMA-differentiated THP-1 cells, LPS then nigericin stimulation, ELISA read at 450 nm, read-out: Activity
[2] = THP-1, Table 4, IL-1β secretion, LPS/nigericin-stimulated THP-1 cells, read-out: IC50

SMILES | IC50 [1] [nM] | IC50 [2] [nM]
N#CC1(c2ccc3c(c2)C2(CC2)CN(CC(=O)Nc2ncc(F)cn2)C3=O)CC1 [Example 93, 2-[6-(1-cyanocyclopropyl)-1-oxospiro[3H-isoquinoline-4,1′-cyclopropane]-2-yl]-N-(5-fluoropyrimidin-2-yl)acetamide] | < 10000 | 2280
O=C(CN1CC2(CC2)c2cc(Cl)ccc2C1=O)Nc1ncc(F)cn1 [Example 94, 2-(6-chloro-1-oxospiro[3H-isoquinoline-4,1′-cyclopropane]-2-yl)-N-(5-fluoropyrimidin-2-yl)acetamide] | < 10000 | 369
O=C(CN1CC(C(F)F)c2cc(Br)ccc2C1=O)Nc1ncc(F)cn1 (centres unmarked) [Example 95, 2-[6-bromo-4-(difluoromethyl)-1-oxo-3,4-dihydroisoquinolin-2-yl]-N-(5-fluoropyrimidin-2-yl)acetamide] | < 10000 | 320
O=C(CN1CC2(CC2)c2cc(C(F)F)ccc2C1=O)Nc1ncc(F)cn1 [Example 96, 2-[6-(difluoromethyl)-1-oxospiro[3H-isoquinoline-4,1′-cyclopropane]-2-yl]-N-(5-fluoropyrimidin-2-yl)acetamide] | < 10000 | 1330
CC1(c2ccc3c(c2)C2(CC2)CN(CC(=O)Nc2ncc(F)cn2)C3=O)CC1 [Example 97, N-(5-fluoropyrimidin-2-yl)-2-[6-(1-methylcyclopropyl)-1-oxospiro[3H-isoquinoline-4,1′-cyclopropane]-2-yl]acetamide] | < 10000 | 1220
O=C(CN1CC2(CC2)c2c(ccc(Cl)c2F)C1=O)Nc1ncc(F)cn1 [Example 98, 2-(6-chloro-5-fluoro-1-oxospiro[3H-isoquinoline-4,1′-cyclopropane]-2-yl)-N-(5-fluoropyrimidin-2-yl)acetamide] | < 10000 | 349
O=C(CN1CC2(CC2)c2cc(Br)c(F)cc2C1=O)Nc1ncc(F)cn1 [Example 99, 2-(6-bromo-7-fluoro-1-oxospiro[3H-isoquinoline-4,1′-cyclopropane]-2-yl)-N-(5-fluoropyrimidin-2-yl)acetamide] | < 10000 | 598
O=C(CN1CC2(CC2)c2c(ccc(C3CC3)c2F)C1=O)Nc1ncc(F)cn1 [Example 100, 2-(6-cyclopropyl-5-fluoro-1-oxospiro[3H-isoquinoline-4,1′-cyclopropane]-2-yl)-N-(5-fluoropyrimidin-2-yl)acetamide] | < 10000 | 114
CC(F)(F)c1ccc2c(c1)C1(CC1)CN(CC(=O)Nc1ncc(F)cn1)C2=O [Example 101, 2-[6-(1,1-difluoroethyl)-1-oxospiro[3H-isoquinoline-4,1′-cyclopropane]-2-yl]-N-(5-fluoropyrimidin-2-yl)acetamide] | < 10000 | 672
O=C(CN1CC2(CC2)c2cc(Br)ccc2C1=S)Nc1ncc(F)cn1 [Example 102, 2-(6-bromo-1-sulfanylidenespiro[3H-isoquinoline-4,1′-cyclopropane]-2-yl)-N-(5-fluoropyrimidin-2-yl)acetamide] | < 10000 | 169
O=C(CN1CC2(CC2)c2cc(Br)ccc2C1=O)Nc1ncc(-c2ccccn2)cn1 [Example 104, 2-(6-bromo-1-oxospiro[3H-isoquinoline-4,1′-cyclopropane]-2-yl)-N-(5-pyridin-2-ylpyrimidin-2-yl)acetamide] | < 10000 | 1870
N#Cc1cnc(NC(=O)CN2CC3(CC3)c3c(ccc(Br)c3F)C2=O)nc1 [Example 105, 2-(6-bromo-5-fluoro-1-oxospiro[3H-isoquinoline-4,1′-cyclopropane]-2-yl)-N-(5-cyanopyrimidin-2-yl)acetamide] | < 10000 | 119
N#Cc1cnc(NC(=O)CN2CC3(CC3)c3c(ccc(Br)c3F)C2=O)c(F)c1 [Example 106, 2-(6-bromo-5-fluoro-1-oxospiro[3H-isoquinoline-4,1′-cyclopropane]-2-yl)-N-(5-cyano-3-fluoropyridin-2-yl)acetamide] | < 10000 | 156
N#Cc1ccnc(NC(=O)CN2CC3(CC3)c3cc(Br)ccc3C2=O)n1 [Example 107, 2-(6-bromo-1-oxospiro[3H-isoquinoline-4,1′-cyclopropane]-2-yl)-N-(4-cyanopyrimidin-2-yl)acetamide] | < 10000 | 2820
O=C(CN1CC2(CC2)c2c(ccc(I)c2F)C1=O)Nc1ncc(F)cn1 [Example 108, 2-(5-fluoro-6-iodo-1-oxospiro[3H-isoquinoline-4,1′-cyclopropane]-2-yl)-N-(5-fluoropyrimidin-2-yl)acetamide] | < 10000 | 18
O=C(CN1C[C@]2(C[C@H]2F)c2cc(Br)ccc2C1=O)Nc1ncccn1 [Example 109] | < 10000 | 36
O=C(CN1C[C@]2(C[C@H]2F)c2cc(Br)ccc2C1=O)Nc1ncc(Cl)cn1 [Example 110] | < 10000 | 12
O=C(CN1CC2(CC2)c2cc(Br)ccc2C1=O)NC1CC(C(F)F)C1 (centres unmarked) [Example 111, 2-(6-bromo-1-oxospiro[3H-isoquinoline-4,1′-cyclopropane]-2-yl)-N-[3-(difluoromethyl)cyclobutyl]acetamide] | < 10000 | 2420
O=C(CN1CC2(CC2)c2cc(Br)ccc2C1=O)NCC1(CC(F)F)CCC1 [Example 112, 2-(6-bromo-1-oxospiro[3H-isoquinoline-4,1′-cyclopropane]-2-yl)-N-[[1-(2,2-difluoroethyl)cyclobutyl]methyl]acetamide] | > 15000 | 13000
O=C(CN1CC2(CC2)c2cc(Br)ccc2C1=O)Nc1ccccc1OC(F)F [Example 113, 2-(6-bromo-1-oxospiro[3H-isoquinoline-4,1′-cyclopropane]-2-yl)-N-[2-(difluoromethoxy)phenyl]acetamide] | < 10000 | 4180
Cc1cccc(NC(=O)CN2CC3(CC3)c3cc(Br)ccc3C2=O)n1 [Example 114, 2-(6-bromo-1-oxospiro[3H-isoquinoline-4,1′-cyclopropane]-2-yl)-N-(6-methylpyridin-2-yl)acetamide] | < 10000 | 1990
Cc1noc(NC(=O)CN2CC3(CC3)c3cc(Br)ccc3C2=O)c1C [Example 115, 2-(6-bromo-1-oxospiro[3H-isoquinoline-4,1′-cyclopropane]-2-yl)-N-(3,4-dimethyl-1,2-oxazol-5-yl)acetamide] | > 15000 | 15400
O=C(CN1CC2(CC2)c2cc(Br)ccc2C1=O)Nc1cccc2nccn12 [Example 116, 2-(6-bromo-1-oxospiro[3H-isoquinoline-4,1′-cyclopropane]-2-yl)-N-imidazo[1,2-a]pyridin-5-ylacetamide] | < 10000 | 4160
O=C(CN1CC2(CC2)c2cc(Br)ccc2C1=O)NCC1COC1 [Example 117, 2-(6-bromo-1-oxospiro[3H-isoquinoline-4,1′-cyclopropane]-2-yl)-N-(oxetan-3-ylmethyl)acetamide] | > 15000 | 19800
O=C(CN1CC2(CC2)c2cc(Br)ccc2C1=O)NC1CS(=O)(=O)C1 [Example 118, 2-(6-bromo-1-oxospiro[3H-isoquinoline-4,1′-cyclopropane]-2-yl)-N-(1,1-dioxothietan-3-yl)acetamide] | > 15000 | 22400
